One data set relates to Plasmodium falciparum. The data set is described as follows: Antiplasmodial activity against synchronized ring stage Plasmodium falciparum 3D7 infected in human erythrocytes assessed as inhibition of parasite proliferation preincubated for 48 hrs followed by [3H]-hypoxanthine incorporation and measured after 24 hrs by microbeta liquid scintillation counter analysis. The data set is classed as functional, organism-based.

Data set [1] can be described thus: Cytotoxicity against human NFF cells assessed as growth inhibition incubated for 72 hrs by SRB assay. The data set is classed as toxicity, cell-based. In general terms: The SRB assay estimates cell density from bound dye.
Data set [2] can be described thus: Selectivity index, ratio of IC50 for cytotoxicity against human NFF cells to the IC50 for antiplasmodial activity against Plasmodium falciparum 3D7 infected in human erythrocytes. The data set is classed as toxicity, cell-based. The conditions noted are these: read-out: Ratio IC50.
Data set [3] has as its system Plasmodium berghei. The data set is described as follows: In vivo antimalarial activity against Plasmodium berghei NK65 infected in Swiss albino mouse assessed as reduction in parasitemia in erythrocytes at 10 mg/kg, po administered once daily for 4 days and measured on day 5 post-infection by Giemsa staining based microscopic analysis relative to control. Also on record: scale not given: the % may be the effect or the level left. The conditions noted are these: time 4 day. The data set is classed as functional.

The subject of data set [4] is Plasmodium berghei. The data set can be described thus: In vivo antimalarial activity against Plasmodium berghei NK65 infected in Swiss albino mouse assessed as reduction in parasitemia in erythrocytes at 20 mg/kg, po administered once daily for 4 days and measured on day 5 post-infection by Giemsa staining based microscopic analysis relative to control. The data set is classed as functional. Also on record: scale not given: the % may be the effect or the level left. The conditions noted are these: time 4 day.

For data set [5], the system named is Plasmodium berghei. The data set can be described thus: In vivo antimalarial activity against Plasmodium berghei NK65 infected in Swiss albino mouse assessed as chemosuppression of parasite in erythrocytes at 10 mg/kg, po administered once daily for 4 days and measured on day 5 post-infection by Giemsa staining based microscopic analysis relative to control. Conditions: time 4 day. The data set is classed as functional.

Data set [6] deals with Plasmodium berghei. The data set can be described thus: In vivo antimalarial activity against Plasmodium berghei NK65 infected in Swiss albino mouse assessed as chemosuppression of parasite in erythrocytes at 20 mg/kg, po once daily for 4 days and measured on day 5 post-infection by Giemsa staining based microscopic analysis relative to control. The data set is classed as functional. The conditions noted are these: time 4 day.

For nine compounds, IC50, selectivity ratio and Activity results are on record in ChEMBL document CHEMBL5390285, “Isolation and In Vitro and In Vivo Activity of Secondary Metabolites from Clerodendrum polycephalum Baker against Plasmodium Malaria Parasites” (J Nat Prod, 2023).

One may read the IC50 as the concentration at which inhibition is half-maximal.

As for `CC1(C)CCC[C@@]2(C)C1=C(O)C(=O)c1c2c(O)c2oc(CO)cc2c1O`, the IC50 in the data set on Plasmodium falciparum is 30 µM. Still for that read-out and setting: the same measure for `CC(=O)OC[C@@]12[C@@H](OC(C)=O)C[C@@H](C)[C@](C)(CCC3CCOC3=O)[C@H]1CCC[C@@]21CO1` (some centres not stated): above 50 µM.

With `C=CC1=C(C)C2=NC/1=C\C1=NC(=C\C3=C(C)C4=C(O)[C@H](C(=O)OC)/C(=C5/N/C(=C\2)[C@@H](C)[C@@H]5CCC(=O)OC)C4=N3)/C(CC)=C1C`, the IC50 in the data set on Plasmodium falciparum is 4.49 µM. Further, in data set [1], the IC50 at 72 h was above 50 µM. Moreover, in data set [2], the selectivity ratio is above 11. Besides, the Activity in the data set on Plasmodium berghei [3] was determined as 2.52%; with Plasmodium berghei [4], 1.5%; in the data set on Plasmodium berghei [5] it was 79%; with Plasmodium berghei [6], 87%. For the compound `CC(=O)OC[C@@]12[C@@H](OC(C)=O)C[C@@H](C)[C@](C)(CCC3CCOC3=O)[C@H]1CCC[C@@H]2C=O` (some centres not stated), the IC50 in the data set with Plasmodium falciparum was 27.8 µM. For `CCN(CC)CCCC(C)Nc1ccnc2cc(Cl)ccc12` (configuration not stated) [CHLOROQUINE], the IC50 at 72 h in data set [1] turned out to be 31.7 µM. Also, the Activity in the data set with Plasmodium berghei [3] came to 1.78%; with Plasmodium berghei [5], 85%. `CC1(C)CCC[C@]2(C)c3c(c(O)c4cc(CO)oc4c3O)C(=O)C[C@@H]12`: the IC50 with Plasmodium falciparum was above 40 µM. Still for that read-out and setting: to `CC(=O)OC[C@@]12[C@@H](OC(C)=O)C[C@@H](C)[C@](C)(CCC3CCOC3=O)[C@H]1CCC[C@@]2(O)CCl` (some centres not stated) belongs above 50 µM; to `COc1ccc(-c2cc(=O)c3c(O)cc(O)cc3o2)cc1` [ACACETIN], below 40 µM. Still for that read-out and setting: the same measure for `CC1(C)C[C@H](O)C[C@@]2(C)OC(=O)C=C12` [LOLIOLIDE]: above 50 µM.
